Assay results reported in patent US20130165489A1, “Small Molecule Modulators of HIV-1 Capsid Stability and Methods Thereof” (The Trustees of the University of Pennsylvania, priority 2010, published 2013).
Entries after “also recorded” stand apart in the source; their conditions may differ.

Key:
CANTD = CANTD (Human immunodeficiency virus type 1 group M subtype B, UniProt P12493); settings: binding to CANTD; read-out: equilibrium dissociation constant (KD); cited from earlier work
DENV2 [1] = experiment: CPE assay, DENV2; format: cell-based; settings: Dengue virus, DENV2, Vero C1008; Vero E6 cells; 3 replicates
DENV1 = experiment: CPE assay, DENV1; format: cell-based; settings: Dengue virus, DENV1, Vero C1008; Vero E6 cells; 3 replicates
in vitro = format: cell-based; settings: hamster
DENV2 [2] = experiment: DENV2 focus reduction assay using BHK cells; settings: Dengue virus, read-out: average IC50, DENV2 focus reduction
DENV (serotypes 1-4) = experiment: CPE assay, Dengue serotypes 1-4; format: cell-based, Dengue virus; settings: Dengue virus; Vero cells; read-out: average half-maximal inhibitory concentration over DENV serotypes 1-4
[3] = Single-round infection assay, infection of U87 CD4-CXCR4 target cells in presence of compound; settings: Human immunodeficiency virus 1, U87.CD4.CXCR4, read-out: IC50 against HIV-1
Vero cells [4] = settings: over the concentration range tested
RSV = experiment: CPE assay, RSV; format: cell-based, respiratory syncytial virus
West Nile virus (WNV) = experiment: West Nile Virus virus-like particle (VLP) assay on Vero cells; format: cell-based; settings: 24 hr, firefly luciferase reporter, 2 replicates
Experimental: (§1) The activity of CMPD-A against a high-priority flaviviral pathogen, West Nile virus (WNV), was evaluated. The compound was tested in a West Nile Virus, virus-like particle (VLP) assay, which is a 24 hr assay on Vero cells using a firefly luciferase reporter to measure viral replication activity. In these tests IC50 values of 30 (±13) μM were obtained, with no toxicity at 100 μM using either both MTT or a renilla luciferase cellular assay (FIG. 16).

DENV3 = experiment: CPE assay, DENV3; format: cell-based; settings: Dengue virus, DENV3, Vero C1008; Vero E6 cells; 3 replicates
DENV4 = experiment: CPE assay, DENV4; format: cell-based; settings: Dengue virus, DENV4, Vero C1008; Vero E6 cells; 3 replicates
HIV-1IIIB = experiment: Anti-HIV efficacy in P4-R5 MAGI cells; format: cell-based
Experimental: P4-R5 MAGI cells (NIH AIDS Research & Reference Reagent Program, catalog #3580) were maintained in Dulbecco's Modified Eagle's Media (DMEM) supplemented with 10% fetal bovine serum (FBS), sodium bicarbonate (0.05%), antibiotics (penicillin, streptomycin, and kanamycin at 40 μg/mL each), and puromycin (1 μg/mL). Initial studies were performed using the HIV-1-susceptible P4-R5 MAGI reporter cell line. HIV-1 infection of these cells (which express CD4, CXCR4, and CCR5) results in LTR-directed β-galactosidase expression, which can be readily and accurately quantitated. Approximately 18 h prior to the experiment, P4-R5 MAGI cells were plated at a concentration of 1.2×10^4 cells/well in a flat-bottom 96-well plate. On the day of the experiment, cells were infected in quadruplicate with HIV-1 strain IIIB (Advanced Biotechnologies, Inc., Columbia, Md.) in the presence or absence of putative CA inhibitors at the indicated concentrations. After 48 h incubation at 37° C., cells were assayed for infection using the Galacto-Star One-Step β-Galactosidase Reporter Gene Assay System (Applied Biosystems, Bedford, Mass.).

producer cells (293T) = format: cell-based, human
Excerpt: Moreover, these compounds appeared to be working at different stages of the viral life-cycle—one at an early post-entry event (CMPD-A) and the other at an assembly or post-integration event in HIV-1 replication (CMPD-D).

[5] = tested on: recombinant luciferase-expressing HIV-1 bearing the envelope glycoprotein of the HIV-1YU-2 strain; experiment: Single-round infection assay, HIV-1 with YU-2 envelope on Cf2Th-CCR5 cells; settings: for activity in the single-round infection assay: Cf2Th-CCR5 cells, YU-2 envelope
[6] = tested on: HIV-1 92BR030 (subtype B clinical isolate); experiment: Anti-HIV efficacy in human PBMCs, isolate 92BR030; format: cell-based; settings: primary PBMCs
Experimental: HIV human peripheral blood mononuclear cell (PBMC) assays were performed as described previously (Lanier et al., 2010, Antimicrob. Agents Chemother. 54:2901-09; Ptak et al., 2008, Antimicrob. Agents Chemother. 52:1302-17). Briefly, fresh PBMCs, seronegative for HIV and hepatitis B virus (HBV), were isolated from blood samples of the screened donors (Biological Specialty Corporation, Colmar, Pa.) by using lymphocyte separation medium (LSM; density, 1.078±0.002 g/ml; Cellgro; Mediatech, Inc.) by following the manufacturer's instructions. Cells were stimulated by incubation in 4 μg/mL phytohemagglutinin (PHA; Sigma) for 48 to 72 h. Mitogenic stimulation was maintained by the addition of 20 U/mL recombinant human interleukin-2 (rhIL-2; R&D Systems, Inc.) to the culture medium. PHA-stimulated PBMCs from at least two donors were pooled, diluted in fresh medium, and added to 96-well plates at 5×10^4 cells/well. Cells were infected (final multiplicity of infection [MOI] of ≅0.1) in the presence of 9 different concentrations of test compounds (triplicate wells/concentration) and incubated for 7 days. To determine the level of virus inhibition, cell-free supernatant samples were collected for analysis of reverse transcriptase activity (Buckheit Jr., et al., 1991, AIDS Res. Hum. Retroviruses 7:295-302). Following removal of supernatant samples, compound cytotoxicity was measured by the addition of 3-(4,5-dimethylthiazol-2-yl)-5-(3-carboxymethoxyphenyl)-2-(4-sulfophenyl)-2H-tetrazolium (MTS; CellTiter 96 reagent; Promega) by following the manufacturer's instructions.
79:6089-6101; Jagodzinski et al., 2000, J. Clin. Microbiol. 38:1247-49; Michael et al., 1999, J. Clin. Microbiol. 37:2557-63 and Vahey et al., 1999, J. Clin. Microbiol. 37:2533-37); HIV-1 Group M isolate 931N101 (Subtype C, CCR5-tropic) from Dr. Robert Bollinger and the UNAIDS Network for HIV Isolation and Characterization (Gao et al., 1994, AIDS Res. Hum. Retroviruses 10:1359-68); HIV-1 Group M isolate CMUO8 (Subtype E, CXCR4-tropic) from Dr. Kenrad Nelson and the UNAIDS Network for HIV Isolation and Characterization (Gao et al., 1994, AIDS Res. Hum. Retroviruses 10:1359-68); HIV-1 Group M isolate G3 (Subtype G, CCR5-tropic) from Alash'le Abimiku (Abimiku et al., 1994, Aids Res. Hum. Retrovir. 10:1581-83); HIV-1 Group 0 isolate BCF02 (CCR5-tropic) from Sentob Saragosti, Françoise Brun-Vézinet, and François Simon (Loussertajaka et al., 1995, J. Virol. 69:5640-49); and SIV isolate Mac251 from Dr. Ronald Desrosiers (Daniel et al., 1985, Science 228:1201-04).

Vero cells [7] = format: cell-based; settings: at 100 μM; MTT or renilla luciferase cellular assay
Experimental: as §1

[8] = tested on: single-round competent HIV-1NL4-3 virus; experiment: Single-round assay, production of infectious virus from compound-treated producer cells
HIV-1NL4-3 CA = HIV-1NL4-3 CA (Human immunodeficiency virus type 1 group M subtype B, UniProt P12493); experiment: Surface plasmon resonance direct binding to HIV-1 CA; settings: SPR
Experimental: Interaction analyses were performed on a Biacore 3000 optical biosensor (Biacore, Piscataway Township, NJ) with simultaneous monitoring of two flow cells Immobilization of the CA protein to CM7 sensor chips was performed following the standard amine coupling procedure according to the manufacturer's specifications. Briefly, carboxyl groups on the sensor chip surface were activated by injection of 50 μL of a solution containing 0.2 M EDC (1-ethyl-3-[3-dimethylamino-propyl]carbodiimide hydrochloride) and 0.05 M NHS(N-hydroxysuccinimide) at a flow rate of 5 μL min^−1. Next, the 50 μL of CA protein at a concentration of 6 μM in pH 5.0, 10 mM sodium acetate buffer was passed over the chip surface at 25° C. at a flow rate of 5 μL min^−1 Then, after unreacted protein had been washed out, excess active ester groups on the sensor surface were capped by the injection of 50 μL of 1 M ethanolamine (pH 8.0) at a flow rate of 5 μL min^−1. A reference surface with the nonspecific anti-gp120 antibody 17b (Thali et al., 1993, J. Virol. 67:3978-88) immobilized was generated at the same time under the same conditions and was used as background to correct nonspecific binding and for instrument and buffer artifacts.
Stock solutions of CMPD-E and CMPD-F were prepared by dissolving the compounds in 100% dimethyl sulfoxide (DMSO) to a final concentration of 10 mM. To prepare the sample for analysis, 30 μL of the compound stock solution was added to sample preparation buffer (25 mM Tris-HCl, 150 mM NaCl, pH 7.5) to a final volume of 1 mL and mixed thoroughly. Preparation of analyte in this manner ensured that the concentration of DMSO was matched with that of running buffer with 3% DMSO. Lower concentrations of each compound were then prepared by twofold serial dilutions into running buffer (25 mM Tris-HCl, 150 mM NaCl, 3% DMSO, pH 7.5). These compound dilutions were then injected over the control and CA surfaces at a flow rate of 50 μL min^−1, for a 2-min association phase, followed by a 5-min dissociation phase. […]

Cc1ccc(NC(=O)NCCSCc2ccc(CN(C)C)o2)cc1Cl [CAP-1, N-(3-chloro-4-methylphenyl)-N′-[2-[([5-[(dimethylamino)-methyl]-2-furyl]-methyl)-sulfanyl]ethyl]urea]
Kd (CANTD): ~800 µM

O=C(O)c1ccc(-c2nc(-c3ccc4oc5ccc(-c6nc(-c7ccc(C(=O)O)cc7)[nH]c6-c6ccccc6)cc5c4c3)c(-c3ccccc3)[nH]2)cc1 [CMPD-A, 4,4′-(4,4′-(dibenzo[b,d]furan-2,8-diyl)bis(5-phenyl-1H-imidazole-4,2-diyl))dibenzoic acid]
IC50 (DENV2 [1]): 1.43 µM
IC50 (DENV1): 8.35 µM
CC50 (in vitro): 35 µM
IC50 (DENV2 [2]): 1.25 µM
IC50 (DENV (serotypes 1-4)): 4.95 µM
IC50 [3]: 33.6 ± 0.31 µM
cellular toxicity against the Vero cells (Vero cells [4]): no cellular toxicity
activity against RSV (RSV; CPE assay, up to 100 μM): active against RSV
IC50 (RSV; human respiratory syncytial virus, RSV, Vero cells): 10.2 µM
IC50 (West Nile virus (WNV)): 30 µM
IC50 (DENV3): 7.66 µM
IC50 (DENV4): 2.37 µM
IC50 (HIV-1IIIB; Human immunodeficiency virus 1, fully infectious virus, P4-R5 MAGI cell line, read-out: IC50 for replication of HIV-1IIIB): 89 ± 3.2 µM
inhibition of HIV-1IIIB replication (HIV-1IIIB; P4-R5 MAGI cells): retained the ability to inhibit
LDH release versus untreated cells (producer cells (293T)): Neither CMPD-A nor CMPD-D promoted LDH release
IC50 ([5]; Human immunodeficiency virus 1, Cf2Th-CCR5, read-out: IC50 against HIV-1 (single-round infection)): 33.3 ± 0.31 µM
inhibition of HIV-1 92BR030 replication in PBMCs [6]: displayed no activity; also recorded: unable to inhibit; also recorded: did not affect replication
toxicity (Vero cells [7]): no toxicity

COC(=O)c1ccc(-c2nc(-c3ccc4oc5ccc(-c6nc(-c7ccc(C(=O)OC)cc7)[nH]c6-c6ccccc6)cc5c4c3)c(-c3ccccc3)[nH]2)cc1 [CMPD-B, dimethyl 4,4′-(4,4′-(dibenzo[b,d]furan-2,8-diyl)bis(5-phenyl-1H-imidazole-4,2-diyl))dibenzoate]
activity in the single-round infection assay [5]: lost all activity

O=C(O)c1ccc(-c2nc(-c3ccccc3)c(-c3ccc4oc5ccccc5c4c3)[nH]2)cc1 [CMPD-C, 4-(5-(dibenzo[b,d]furan-2-yl)-4-phenyl-1H-imidazol-2-yl)benzoic acid]
activity in the single-round infection assay [5]: retained the activity of the parental molecule

Cc1ccc(C(C(=O)NC2CCCCC2)N(Cc2ccccc2Cl)C(=O)c2snc(C(=O)NC3CCCCC3)c2N)o1 (stereo not shown) [CMPD-D, 4-amino-N5-(2-chlorobenzyl)-N3-cyclohexyl-N5-(2-(cyclohexylamino)-1-(5-methylfuran-2-yl)-2-oxoethyl)isothiazole-3,5-dicarboxamide]
antiretroviral activity, assembly or post-integration event [8]: significant antiretroviral activity
LDH release versus untreated cells (producer cells (293T)): Neither CMPD-A nor CMPD-D promoted LDH release
activity in the single-round infection assay [5]: not to have any effect on HIV-1 infection

CC1(C)CC(NC(=O)C(=O)Nc2ccc(Cl)cc2)CC(C)(C)N1 [CMPD-F, N1-(4-chlorophenyl)-N2-(2,2,6,6-tetramethylpiperidin-4-yl)oxalamide, reference compound]
interaction with sensor-chip immobilized HIV-1 CA (HIV-1NL4-3 CA): displayed no such interaction
